This note sets out measurements from ChEMBL document CHEMBL4715913, “Discovery of benzo[f]pyrido[4,3-b][1,4]oxazepin-10-one derivatives as orally available bromodomain and extra-terminal domain (BET) inhibitors with efficacy in an in vivo psoriatic animal model” (Bioorg Med Chem, 2021).

Structures are written as SMILES. Calls of active or inactive are those of the source. No cut-off for these calls is given here.

Series [1] concerns Mus musculus. The experiment in a line: Protection against imiquimod-induced Harlan Balb/c mouse model of psoriasis assessed as decrease in ear thickness at 10 mg/kg, po administered BID for 7 days measured on day 8 by dial gauge micrometer analysis. It counts as functional, organism-based. Particulars: time 7.0 day.
A short description of series [2]: Toxicity in imiquimod-induced Harlan Balb/c mouse model of psoriasis assessed as effect on body weight at 10 mg/kg, po BID for 7 days. Type of series: organism-based. To be noted: in vivo, 168 h, time 7 day.
Series [3] concerns the target T1, Bromodomain-containing protein 2 (Homo sapiens, UniProt P25440). The experiment in a line: Binding affinity to human partial length BRD2-BD1 (K71 to N194 residues) expressed in bacterial expression system by BROMOscan method.
Series [4] addresses T2, Bromodomain-containing protein 3 (Homo sapiens, UniProt Q15059). As to the kind of experiment: Binding affinity to human partial length BRD3-BD1 (P24 to E144 residues) expressed in bacterial expression system by BROMOscan method.
Series [5] deals with T3, Bromodomain-containing protein 4 (Homo sapiens, UniProt O60885). The experiment in a line: Inhibition of BRD4-BD1 (unknown origin) by TR-FRET assay. In general terms: In TR-FRET formats the signal depends on donor and acceptor labels being close together.
Series [6] has as its target T3, Bromodomain-containing protein 4. As to the kind of experiment: Inhibition of BRD4 in human PBMC assessed as reduction in LPS-induced TNFalpha secretion preincubated for 1 hr followed by LPS-stimulation and measured after 20 hrs by magnetic beads technique based assay.
For series [7], the target named is Mitogen-activated protein kinase 7 (Homo sapiens, UniProt Q13164). The experiment in a line: Inhibition of recombinant human ERK5 using myelin basic protein as substrate by [gamm33P]ATP based HotSpot radiometric assay.
Sequence of Mitogen-activated protein kinase 7 (Q13164 whole entry): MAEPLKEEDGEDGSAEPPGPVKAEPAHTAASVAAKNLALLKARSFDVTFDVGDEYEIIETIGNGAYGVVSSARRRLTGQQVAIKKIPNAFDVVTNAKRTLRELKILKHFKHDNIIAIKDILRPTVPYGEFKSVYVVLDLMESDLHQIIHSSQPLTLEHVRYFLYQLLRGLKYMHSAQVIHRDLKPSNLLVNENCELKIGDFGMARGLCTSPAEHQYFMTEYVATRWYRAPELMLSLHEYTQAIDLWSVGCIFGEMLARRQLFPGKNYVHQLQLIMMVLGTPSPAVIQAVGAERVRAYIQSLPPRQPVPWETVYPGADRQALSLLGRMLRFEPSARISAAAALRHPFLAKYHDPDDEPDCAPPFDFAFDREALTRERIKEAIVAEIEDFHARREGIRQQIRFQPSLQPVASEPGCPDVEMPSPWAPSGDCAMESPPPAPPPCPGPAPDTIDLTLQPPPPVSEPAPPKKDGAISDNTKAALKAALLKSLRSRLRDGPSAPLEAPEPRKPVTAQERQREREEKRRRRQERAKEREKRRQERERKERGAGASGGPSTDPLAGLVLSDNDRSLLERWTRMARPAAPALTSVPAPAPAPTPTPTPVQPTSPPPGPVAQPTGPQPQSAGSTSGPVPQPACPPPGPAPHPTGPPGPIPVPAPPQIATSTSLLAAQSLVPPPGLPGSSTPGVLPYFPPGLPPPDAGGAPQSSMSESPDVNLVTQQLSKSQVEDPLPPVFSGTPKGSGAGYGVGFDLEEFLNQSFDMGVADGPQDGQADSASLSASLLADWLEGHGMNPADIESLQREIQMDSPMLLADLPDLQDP
Series [8] can be described thus: Stability of compound in human liver microsomes assessed as parent compound remaining after 1 hr. A general note: Microsomes from liver hold many membrane-bound enzymes, among them those of drug oxidation.
Series [9] concerns the target Voltage-gated inwardly rectifying potassium channel KCNH2 (Homo sapiens, UniProt Q12809). As to the kind of experiment: Inhibition of human ERG stably expressed in CHO cells at holding potential of -80 mV incubated for 12 mins.
For series [10], the target named is T1, Bromodomain-containing protein 2. As to the kind of experiment: Binding affinity to human partial length BRD2-BD2 (E348 to D455 residues) expressed in bacterial expression system by BROMOscan method.
The target of series [11] is T2, Bromodomain-containing protein 3. As to the kind of experiment: Binding affinity to human partial length BRD3-BD2 (G306 to P416 residues) expressed in bacterial expression system by BROMOscan method.
In series [12] the target is T3, Bromodomain-containing protein 4. As to the kind of experiment: Binding affinity to human partial length BRD4-BD1 (N44 to E168 residues) expressed in bacterial expression system by BROMOscan method.
Series [13] has the same target. As to the kind of experiment: Binding affinity to human partial length BRD4-BD2 (K333 to E460 residues) expressed in bacterial expression system by BROMOscan method.
The target of series [14] is T4, Bromodomain testis-specific protein (Homo sapiens, UniProt Q58F21). As to the kind of experiment: Binding affinity to human partial length BRDT-BD1 (N21 to E137 residues) expressed in bacterial expression system by BROMOscan method.
The target of series [15] is T4, Bromodomain testis-specific protein. The experiment in a line: Binding affinity to human partial length BRDT-BD2 (K250 to E382 residues) expressed in bacterial expression system by BROMOscan method.
Another series has as its target CREB-binding protein (Homo sapiens, UniProt Q92793). As to the kind of experiment: Binding affinity to human partial length CREBBP (R1081 to G1197 residues) expressed in bacterial expression system by BROMOscan method.
Series [16] concerns the target Histone acetyltransferase p300 (Homo sapiens, UniProt Q09472). The experiment in a line: Binding affinity to human partial length EP300 (A1040 to G1161 residues) expressed in bacterial expression system by BROMOscan method.
The subject of series [17] is PBMC. The experiment in a line: Inhibition of IL-6 production in LPS-induced human PBMC preincubated for 1 hr followed by LPS-stimulation and measured after 20 hrs by magnetic beads technique based assay. Type of series: functional, tissue-based. Particulars: time 21.0 hrs.
In series [18] the test system is PBMC. As to the kind of experiment: Inhibition of MCP-1 production in LPS-induced human PBMC preincubated for 1 hr followed by LPS-stimulation and measured after 20 hrs by magnetic beads technique based assay. Type of series: functional, tissue-based. Particulars: time 21.0 hrs.
For series [19], the species on record is Homo sapiens. As to the kind of experiment: Selectivity ratio of Kd for binding affinity to human partial length CREBBP (R1081 to G1197 residues) expressed in bacterial expression system to Kd for binding affinity to human partial length BRD2-BD1 (K71 to N194 residues) expressed in bacterial expression system.
Series [20] is filed under the species Homo sapiens. As to the kind of experiment: Selectivity ratio of Kd for binding affinity to human partial length EP300 (A1040 to G1161 residues) expressed in bacterial expression system to Kd for binding affinity to human partial length BRD2-BD1 (K71 to N194 residues) expressed in bacterial expression system.
For series [21], the species on record is Homo sapiens. The experiment in a line: Selectivity ratio of Kd for binding affinity to human partial length CREBBP (R1081 to G1197 residues) expressed in bacterial expression system to Kd for binding affinity to human partial length BRD2-BD2 (E348 to D455 residues) expressed in bacterial expression system.
The species entered for series [22] is Homo sapiens. The experiment in a line: Selectivity ratio of Kd for binding affinity to human partial length EP300 (A1040 to G1161 residues) expressed in bacterial expression system to Kd for binding affinity to human partial length BRD2-BD2 (E348 to D455 residues) expressed in bacterial expression system.
For series [23], the species on record is Homo sapiens. As to the kind of experiment: Selectivity ratio of Kd for binding affinity to human partial length CREBBP (R1081 to G1197 residues) expressed in bacterial expression system to Kd for binding affinity to human partial length BRD3-BD1 (P24 to E144 residues) expressed in bacterial expression system.
The species entered for series [24] is Homo sapiens. The experiment in a line: Selectivity ratio of Kd for binding affinity to human partial length EP300 (A1040 to G1161 residues) expressed in bacterial expression system to Kd for binding affinity to human partial length BRD3-BD1 (P24 to E144 residues) expressed in bacterial expression system.
Series [25] is filed under the species Homo sapiens. As to the kind of experiment: Selectivity ratio of Kd for binding affinity to human partial length CREBBP (R1081 to G1197 residues) expressed in bacterial expression system to Kd for binding affinity to human partial length BRD3-BD2 (G306 to P416 residues) expressed in bacterial expression system.
For series [26], the species on record is Homo sapiens. As to the kind of experiment: Selectivity ratio of Kd for binding affinity to human partial length EP300 (A1040 to G1161 residues) expressed in bacterial expression system to Kd for binding affinity to human partial length BRD3-BD2 (G306 to P416 residues) expressed in bacterial expression system.
For series [27], the species on record is Homo sapiens. The experiment in a line: Selectivity ratio of Kd for binding affinity to human partial length CREBBP (R1081 to G1197 residues) expressed in bacterial expression system to Kd for binding affinity to human partial length BRD4-BD1 (N44 to E168 residues) expressed in bacterial expression system.
The species entered for series [28] is Homo sapiens. The experiment in a line: Selectivity ratio of Kd for binding affinity to human partial length EP300 (A1040 to G1161 residues) expressed in bacterial expression system to Kd for binding affinity to human partial length BRD4-BD1 (N44 to E168 residues) expressed in bacterial expression system.
Series [29] is filed under the species Homo sapiens. As to the kind of experiment: Selectivity ratio of Kd for binding affinity to human partial length CREBBP (R1081 to G1197 residues) expressed in bacterial expression system to Kd for binding affinity to human partial length BRD4-BD2 (K333 to E460 residues) expressed in bacterial expression system.
The species named for series [30] is Homo sapiens. As to the kind of experiment: Selectivity ratio of Kd for binding affinity to human partial length EP300 (A1040 to G1161 residues) expressed in bacterial expression system to Kd for binding affinity to human partial length BRD4-BD2 (K333 to E460 residues) expressed in bacterial expression system.
The species entered for series [31] is Homo sapiens. The experiment in a line: Selectivity ratio of Kd for binding affinity to human partial length CREBBP (R1081 to G1197 residues) expressed in bacterial expression system to Kd for binding affinity to human partial length BRDT-BD1 (N21 to E137 residues) expressed in bacterial expression system.
The species entered for series [32] is Homo sapiens. The experiment in a line: Selectivity ratio of Kd for binding affinity to human partial length EP300 (A1040 to G1161 residues) expressed in bacterial expression system to Kd for binding affinity to human partial length BRDT-BD1 (N21 to E137 residues) expressed in bacterial expression system.
The species entered for series [33] is Homo sapiens. The experiment in a line: Selectivity ratio of Kd for binding affinity to human partial length CREBBP (R1081 to G1197 residues) expressed in bacterial expression system to Kd for binding affinity to human partial length BRDT-BD2 (K250 to E382 residues) expressed in bacterial expression system.
The species named for series [34] is Homo sapiens. The experiment in a line: Selectivity ratio of Kd for binding affinity to human partial length EP300 (A1040 to G1161 residues) expressed in bacterial expression system to Kd for binding affinity to human partial length BRDT-BD2 (K250 to E382 residues) expressed in bacterial expression system.
The subject of series [35] is Mus musculus. The experiment in a line: Protection against imiquimod-induced po dosed Harlan Balb/c mouse model of psoriasis assessed as decrease in ear thickness administered BID for 7 days measured on day 8 by dial gauge micrometer analysis. It counts as functional, organism-based. Particulars: dose 3-30 mg/kg, time 7.0 day.
The nature of series [36]: Toxicity in imiquimod-induced Harlan Balb/c mouse model of psoriasis assessed as effect on body weight at 3 to 30 mg/kg, po BID for 7 days. Particulars: in vivo, 168 h, dose 3-30 mg/kg, time 7 day. It counts as organism-based.

T1 sequence (P25440 whole entry, the tested form may be a part): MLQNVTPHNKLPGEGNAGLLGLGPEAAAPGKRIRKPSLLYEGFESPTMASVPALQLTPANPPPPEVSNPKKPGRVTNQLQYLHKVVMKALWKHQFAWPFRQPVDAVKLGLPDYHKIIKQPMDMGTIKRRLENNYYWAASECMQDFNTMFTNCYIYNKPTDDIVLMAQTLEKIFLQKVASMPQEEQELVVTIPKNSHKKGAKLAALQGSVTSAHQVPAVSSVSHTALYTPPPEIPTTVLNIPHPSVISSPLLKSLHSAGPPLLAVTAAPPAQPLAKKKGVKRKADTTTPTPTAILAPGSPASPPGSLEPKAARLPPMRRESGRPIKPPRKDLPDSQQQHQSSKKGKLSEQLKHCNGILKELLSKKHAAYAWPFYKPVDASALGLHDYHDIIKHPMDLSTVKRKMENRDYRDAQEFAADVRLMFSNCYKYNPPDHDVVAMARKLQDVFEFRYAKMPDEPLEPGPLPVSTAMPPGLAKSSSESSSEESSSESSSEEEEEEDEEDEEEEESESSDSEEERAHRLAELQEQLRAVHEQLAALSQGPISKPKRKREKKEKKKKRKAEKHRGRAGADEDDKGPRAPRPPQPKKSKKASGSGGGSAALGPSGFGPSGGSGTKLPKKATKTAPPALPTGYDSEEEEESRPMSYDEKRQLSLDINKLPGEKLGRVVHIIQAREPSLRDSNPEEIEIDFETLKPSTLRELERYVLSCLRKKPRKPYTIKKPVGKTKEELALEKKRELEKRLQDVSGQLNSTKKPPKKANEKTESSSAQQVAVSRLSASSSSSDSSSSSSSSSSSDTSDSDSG
T2 sequence (Q15059 whole entry, the tested form may be a part): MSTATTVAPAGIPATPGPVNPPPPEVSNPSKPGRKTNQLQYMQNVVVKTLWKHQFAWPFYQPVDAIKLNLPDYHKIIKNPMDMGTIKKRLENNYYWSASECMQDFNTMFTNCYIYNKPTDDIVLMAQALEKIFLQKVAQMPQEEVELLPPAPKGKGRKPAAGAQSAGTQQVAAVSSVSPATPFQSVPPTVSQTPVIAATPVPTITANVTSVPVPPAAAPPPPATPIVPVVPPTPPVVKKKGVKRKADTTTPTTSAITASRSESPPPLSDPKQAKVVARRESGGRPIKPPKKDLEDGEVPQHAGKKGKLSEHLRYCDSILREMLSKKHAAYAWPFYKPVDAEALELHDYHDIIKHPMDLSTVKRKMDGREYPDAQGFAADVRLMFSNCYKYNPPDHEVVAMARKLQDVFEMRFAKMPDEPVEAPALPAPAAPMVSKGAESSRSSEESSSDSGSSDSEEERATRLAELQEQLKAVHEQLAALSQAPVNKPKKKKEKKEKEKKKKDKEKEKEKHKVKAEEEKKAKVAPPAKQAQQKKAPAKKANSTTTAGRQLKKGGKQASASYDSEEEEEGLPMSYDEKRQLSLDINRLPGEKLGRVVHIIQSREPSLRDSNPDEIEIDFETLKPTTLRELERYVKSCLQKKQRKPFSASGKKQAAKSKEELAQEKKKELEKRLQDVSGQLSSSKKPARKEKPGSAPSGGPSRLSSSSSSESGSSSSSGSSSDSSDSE
Sequence of Histone acetyltransferase p300 (Q09472 whole entry, the tested form may be a part): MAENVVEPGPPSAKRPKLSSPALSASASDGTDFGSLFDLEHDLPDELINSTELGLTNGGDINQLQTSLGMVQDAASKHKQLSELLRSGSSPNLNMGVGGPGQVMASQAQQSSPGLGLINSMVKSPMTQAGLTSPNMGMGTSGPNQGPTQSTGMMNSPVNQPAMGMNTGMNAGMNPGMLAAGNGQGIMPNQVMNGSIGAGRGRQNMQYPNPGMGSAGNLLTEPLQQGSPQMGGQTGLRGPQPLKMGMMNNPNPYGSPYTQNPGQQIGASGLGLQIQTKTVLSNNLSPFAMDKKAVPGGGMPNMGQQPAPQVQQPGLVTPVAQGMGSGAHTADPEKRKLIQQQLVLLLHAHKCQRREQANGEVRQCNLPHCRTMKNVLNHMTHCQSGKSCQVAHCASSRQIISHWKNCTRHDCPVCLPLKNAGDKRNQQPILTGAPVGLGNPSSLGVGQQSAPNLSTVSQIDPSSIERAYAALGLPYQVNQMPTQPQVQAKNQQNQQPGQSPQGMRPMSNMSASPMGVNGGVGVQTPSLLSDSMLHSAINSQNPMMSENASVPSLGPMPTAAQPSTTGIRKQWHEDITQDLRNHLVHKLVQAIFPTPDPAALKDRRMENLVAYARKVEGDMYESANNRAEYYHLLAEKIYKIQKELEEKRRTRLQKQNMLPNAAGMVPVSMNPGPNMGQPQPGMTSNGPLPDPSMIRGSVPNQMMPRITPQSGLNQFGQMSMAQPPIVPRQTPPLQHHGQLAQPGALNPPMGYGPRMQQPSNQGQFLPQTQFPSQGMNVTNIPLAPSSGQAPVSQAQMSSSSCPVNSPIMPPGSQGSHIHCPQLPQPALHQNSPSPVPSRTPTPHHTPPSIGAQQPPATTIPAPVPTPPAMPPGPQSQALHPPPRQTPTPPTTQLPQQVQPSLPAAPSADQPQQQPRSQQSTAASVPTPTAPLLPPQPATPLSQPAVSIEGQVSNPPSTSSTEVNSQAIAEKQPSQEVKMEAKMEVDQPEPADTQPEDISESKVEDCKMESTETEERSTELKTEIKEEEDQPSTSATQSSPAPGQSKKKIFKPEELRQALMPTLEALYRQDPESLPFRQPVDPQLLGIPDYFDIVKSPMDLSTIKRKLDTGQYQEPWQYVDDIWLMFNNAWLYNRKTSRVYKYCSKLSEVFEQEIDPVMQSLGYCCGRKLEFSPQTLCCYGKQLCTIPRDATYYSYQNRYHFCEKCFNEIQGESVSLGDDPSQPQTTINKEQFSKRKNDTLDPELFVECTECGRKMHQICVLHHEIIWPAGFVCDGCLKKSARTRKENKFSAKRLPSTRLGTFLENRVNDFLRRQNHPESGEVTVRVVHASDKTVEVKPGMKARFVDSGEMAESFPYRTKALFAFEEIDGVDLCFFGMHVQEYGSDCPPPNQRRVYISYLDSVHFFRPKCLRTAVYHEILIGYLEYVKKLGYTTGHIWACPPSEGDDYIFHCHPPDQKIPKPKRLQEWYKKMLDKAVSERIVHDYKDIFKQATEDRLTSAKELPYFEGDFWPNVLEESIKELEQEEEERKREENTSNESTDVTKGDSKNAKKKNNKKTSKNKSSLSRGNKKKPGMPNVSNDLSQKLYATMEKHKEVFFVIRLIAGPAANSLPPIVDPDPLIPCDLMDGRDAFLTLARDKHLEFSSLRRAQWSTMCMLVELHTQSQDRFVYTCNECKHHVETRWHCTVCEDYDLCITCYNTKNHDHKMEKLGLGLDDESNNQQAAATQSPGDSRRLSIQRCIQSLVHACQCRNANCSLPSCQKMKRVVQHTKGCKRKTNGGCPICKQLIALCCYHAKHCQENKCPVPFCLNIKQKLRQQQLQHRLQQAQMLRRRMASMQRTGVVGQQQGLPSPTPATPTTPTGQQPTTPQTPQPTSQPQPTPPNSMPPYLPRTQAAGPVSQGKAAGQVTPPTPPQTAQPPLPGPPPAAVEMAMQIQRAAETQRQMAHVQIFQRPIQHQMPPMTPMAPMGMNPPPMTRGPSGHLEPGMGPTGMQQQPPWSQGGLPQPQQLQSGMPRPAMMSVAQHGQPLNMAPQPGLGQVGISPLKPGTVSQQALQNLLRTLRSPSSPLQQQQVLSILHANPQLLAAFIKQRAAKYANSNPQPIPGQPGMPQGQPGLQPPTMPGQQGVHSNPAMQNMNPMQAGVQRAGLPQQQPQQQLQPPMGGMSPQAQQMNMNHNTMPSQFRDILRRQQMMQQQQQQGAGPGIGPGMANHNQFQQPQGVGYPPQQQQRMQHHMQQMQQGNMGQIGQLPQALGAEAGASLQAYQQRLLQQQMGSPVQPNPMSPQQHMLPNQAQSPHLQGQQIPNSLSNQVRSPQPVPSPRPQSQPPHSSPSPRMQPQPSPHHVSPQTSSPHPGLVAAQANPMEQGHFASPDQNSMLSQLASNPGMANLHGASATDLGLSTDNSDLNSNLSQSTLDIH

As for `CCOc1cc([C@@H](CS(C)(=O)=O)N2C(=O)c3cccc(NC(C)=O)c3C2=O)ccc1OC`, in the series on Mus musculus [1], the result was Active. The Activity entry in [2] was “Non-Toxic”.
What is called Kd is the constant that tells how readily two partners part at equilibrium. As a reminder, the IC50 is the concentration that inhibits the measured activity by half. In general, EC50 refers to the concentration at which the effect is half-maximal. Broadly, the share remaining is the share of the starting amount still present when the sample was taken. Take `CN1C(=O)c2c(F)cccc2Oc2cc(N[C@H]3CC[C@H](O)CC3)ncc21`: the Kd in series [3] was found to be 71 nM; in [4], 52 nM; in series [10], 160 nM; in [11] it was 140 nM; in series [12], 78 nM; in [13] it was 72 nM. Moreover, the Kd in [14] came to 170 nM; in series [15], 220 nM; at CREB-binding protein, 1900 nM; in series [16], 1200 nM. Besides, the IC50 in [5] was 1270 nM; in [7] it was 131 nM; in series [9], more than 10 µM. For the same compound, the EC50 in [6] was 440 nM. The amount remaining at 1 h in series [8] is 100%. Further, the inhibition result in the series with PBMC [17] and in the series on PBMC [18] was “Active” throughout. For the same compound, the Selectivity ratio in the series filed under Homo sapiens [19], in the series listed under Homo sapiens [20], in the series filed under Homo sapiens [21], in the series listed under Homo sapiens [22], in the series filed under Homo sapiens [23] and in the series listed under Homo sapiens [24] was 20 throughout. In addition, the Selectivity ratio in the series filed under Homo sapiens [25], in the series listed under Homo sapiens [26], in the series listed under Homo sapiens [27], in the series filed under Homo sapiens [28], in the series filed under Homo sapiens [29] and in the series filed under Homo sapiens [30] was 20 each time. Further, the Selectivity ratio in the series listed under Homo sapiens [31], in the series listed under Homo sapiens [32], in the series filed under Homo sapiens [33] and in the series filed under Homo sapiens [34] was 20 throughout. The Activity entry was “Dose-dependent effect” with Mus musculus [35] and “Non-Toxic” in series [36]. Moreover, the result with Mus musculus [1] was Active.
